ChEMBL document CHEMBL1121952, “Directional probes of the hydrophobic component of the aromatic ring binding site of norepinephrine N-methyltransferase” (J Med Chem, 1982)

How the values were obtained:
[1] = Vmax/Km x100 value of the compound; format: ADME
[2] = target: T1, Phenylethanolamine N-methyltransferase (Bos taurus, UniProt P10938); assay: (§1) The inhibitory constant(Ki) value for Norepinephrine N-methyl-transferase was calculated
T1 sequence (P10938 whole entry): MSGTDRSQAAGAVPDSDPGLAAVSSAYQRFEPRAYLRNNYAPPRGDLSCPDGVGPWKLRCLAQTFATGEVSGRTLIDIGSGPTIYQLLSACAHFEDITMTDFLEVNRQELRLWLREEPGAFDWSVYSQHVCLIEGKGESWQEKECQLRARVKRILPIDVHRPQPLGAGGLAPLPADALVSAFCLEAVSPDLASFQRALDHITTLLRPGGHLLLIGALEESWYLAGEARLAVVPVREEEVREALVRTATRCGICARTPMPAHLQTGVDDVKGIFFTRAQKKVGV

[3] = compound: NCC(O)c1ccc2ccccc2c1; assay: as §1
[4] = compound: NCC(O)c1ccc(-c2ccccc2)cc1; assay: as §1
[5] = compound: NCC(O)c1cccc2ccccc12; assay: as §1
[6] = compound: NCC(O)c1cccc(-c2ccccc2)c1; assay: as §1

In the case of NCC(O)c1cccc(-c2ccccc2)c1 (stereo not drawn), the “Vmax / Kmax100” value [1] is reported as 1.42.

Molecule CC(N)c1ccc(-c2ccccc2)cc1 (stereo not drawn) has a Ki [2] of 737 µM.

In the case of NCC(O)c1ccc(-c2ccccc2)cc1 (stereo not drawn), the “Vmax / Kmax100” value [1] is reported as 5.44.

With CC(N)c1cccc(-c2ccccc2)c1 (stereo not drawn) the Ki [2] was 89 µM.

In the case of CC(N)Cc1cccc(-c2ccccc2)c1 (stereo not drawn), the Ki [2] is reported as > 2000 µM.

CC(N)Cc1ccc(-c2ccccc2)cc1 (stereo not drawn) showed a Ki [2] of 262 µM.

In the case of NCC(O)c1ccc2ccccc2c1 (stereo not drawn), the “Vmax / Kmax100” value [1] is reported as 5.6.

With NCC(O)c1cccc2ccccc12 (stereo not drawn) the “Vmax / Kmax100” value [1] was 1.29.

In the case of NC[C@@H](O)c1ccccc1, the “Vmax / Kmax100” value [1] is reported as 1.62.

B1: Phenylethanolamine N-methyltransferase (Bos taurus), P10938 (protein)
chain: MSGTDRSQAAGAVPDSDPGLAAVSSAYQRFEPRAYLRNNYAPPRGDLSCPDGVGPWKLRCLAQTFATGEVSGRTLIDIGSGPTIYQLLSACAHFEDITMTDFLEVNRQELRLWLREEPGAFDWSVYSQHVCLIEGKGESWQEKECQLRARVKRILPIDVHRPQPLGAGGLAPLPADALVSAFCLEAVSPDLASFQRALDHITTLLRPGGHLLLIGALEESWYLAGEARLAVVPVREEEVREALVRTATRCGICARTPMPAHLQTGVDDVKGIFFTRAQKKVGV
Molecule B1 has a Km [3] of 20 µM, a Km [4] of 64 µM and a Km [5] of 132 µM. It also gave a Km [6] of 656 µM.
